What was measured:
Format in all cases: cell-based
C-33 A = assay: Cancer cell line proliferation assay (CellTiter-Glo), C-33 A; settings: Homo sapiens, 144 h, Cervical (squamous), L914Wfs*10 LATS2, 6 days
Experimental: (§1) All the cell lines are cultured in the media supplemented with 10-20% fetal bovine serum, in the temperature of 37° C., 5% CO2 and 95% humidity. The indicated cell lines (all sourced from the ATCC cell culture collection) are plated in 96-Well Flat Clear Bottom Black Polystyrene TC-Treated Microplates with the final cell density of 4×10^3 cells/well. Cells are incubated overnight and then compounds, dissolved in DMSO, are added in dose-response. Cells are incubated with compound dilutions for another 6 days. Cell viability is quantitated using CellTiter-Glo reagent (Perkin Elmer) and measured using an EnVision Multi Label Reader.

[1] = tested on: YAP/TAZ-TEAD transcription; assay: Reporter gene assay for measuring the inhibition of YAP/TAZ-TEAD transcription (TEAD-responsive element luciferase reporter in Hek293T cells); settings: Homo sapiens, HEK-293T, 24 h, Hek293T cells transiently transfected with TEAD-responsive element luciferase reporter; 24 hours incubation
Method in brief: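 Hek293T cells transiently transfected with a TEAD-responsive element luciferase reporter, plated onto pre-diluted compounds and incubated 24 h at 37 °C/5% CO2. Luminescence read after SteadyLite addition; % inhibition from RLU relative to vehicle (0%) and a positive control inhibitor (100%), giving IC50.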

KMRC3 = assay: Cancer cell line proliferation assay (CellTiter-Glo), KMRC3; settings: 144 h, Kidney, LATS1 HOM DEL, 6 days
Experimental: as §1

Caov-3 = assay: Cancer cell line proliferation assay (CellTiter-Glo), Caov-3; settings: Homo sapiens, 144 h, Ovary, LATS2 HOM DEL, 6 days
Experimental: as §1

With `C=CC(=O)NC1Cc2ccccc2N(c2ccc(C(F)(F)F)cc2)C1` (stereo not shown) [compound 001, N-(1-(4-(trifluoromethyl)phenyl)-1,2,3,4-tetrahydroquinolin-3-yl)acrylamide] the GI50 (C-33 A) was 100 nM, the IC50 [1] was < 1000 nM and the GI50 (KMRC3) was 20 nM. The GI50 (Caov-3) was 110 nM.
